Assay results: patent US20140213576A1, “NOVEL COMPOUND USEFUL FOR THE TREATMENT OF DEGENERATIVE AND INFLAMMATORY DISEASES” (GALAPAGOS NV, priority 2013, published 2014)
Where “and” joins values, the source holds several entries; their conditions need not be identical. Equal entries are not always repeated.

Experiments:
[1] = test system: Collagen Induced Arthritis (CIA); test: Rat CIA model; format: in vivo; conditions: p.o., therapeutic dosing day 16 to day 30
Procedure: Completed Freund's adjuvant (CFA) and incomplete Freund's adjuvant (IFA) were purchased from Difco. Bovine collagen type II (CII), lipopolysaccharide (LPS), and Enbrel was obtained from Chondrex (Isle d'Abeau, France); Sigma (P4252, L'Isle d'Abeau, France), […] (25 mg injectable syringe, France) Acros Organics (Palo Alto, Calif.), respectively. All other reagents used were of reagent grade and all solvents were of analytical grade. Dark Agouti rats (male, 7-8 weeks old) were obtained from Harlan Laboratories (Maison-Alfort, France). Rats were kept on a 12 h light/dark cycle (0700-1900). Temperature was maintained at 22° C., and food and water were provided ad libitum. […] A compound of interest was typically tested at 5 doses, e.g. 1, 2, 3, 5, and 10 mg/kg, p.o. Arthritis is scored according to the method of Khachigian 2006, Lin et al 2007 and Nishida et al. 2004). […] To permit the meta-analysis of multiple studies the clinical score values were normalised as follows: AUC of clinical score (AUC score): The area under the curve (AUC) from day 1 to day 14 was calculated for each individual rat. The AUC of each animal was divided by the average AUC obtained for the vehicle in the study from which the data on that animal was obtained and multiplied by 100 (i.e. the AUC was expressed as a percentage of the average vehicle AUC per study). […]

[2] = target: T1, Recombinant human JAK1 (catalytic domain, amino acids 866-1154) (Homo sapiens, UniProt P23458); test: JAK1 Ulight-JAK1 peptide assay; format: biochemical
T1 construct: Recombinant human JAK1 (catalytic domain, amino acids 866-1154; catalog number PV4774); purchased Invitrogen PV4774
Procedure: Recombinant human JAK1 (catalytic domain, amino acids 866-1154; catalog number PV4774) was purchased from Invitrogen. 1 ng of JAK1 was incubated with 20 nM Ulight-JAK1(tyr1023) peptide (Perkin Elmer catalog number TRF0121) in kinase reaction buffer (25 mM MOPS pH6.8, 0.01% Brij-35, 5 mM MgCl2, 2 mM DTT, 7 μM ATP) with or without 4 μL containing test compound or vehicle (DMSO, 1% final concentration), in a total volume of 20 μL, in a white 384 Opti plate (Perkin Elmer, catalog number 6007290). After 60 min at room temperature, reactions were stopped by adding 20 μL/well of detection mixture (1× detection buffer (Perkin Elmer, catalog number CR97-100C), 0.5 nM Europium-anti-phosphotyrosine (PT66) (Perkin Elmer, catalog number AD0068), 10 mM EDTA). Readout is performed using the Envision with excitation at 320 nm and measuring emission at 615 nm (Perkin Elmer). Kinase activity was calculated by subtracting relative fluorescence units (RFU) obtained in the presence of a positive control inhibitor (10 μM staurosporine) from RFU obtained in the presence of vehicle. The ability of a test compound to inhibit this activity was determined as:
Percentage inhibition=((RFU determined for sample with test compound present−RFU determined for sample with positive control inhibitor) divided by (RFU determined in the presence of vehicle−RFU determined for sample with positive control inhibitor))*100.
Dose dilution series were prepared for the compounds enabling the testing of dose-response effects in the JAK1 assay and the calculation of the IC50 for the compound. Each compound is routinely tested at concentration of 20 μM followed by a ⅕ serial dilution, 10 points in a final concentration of 1% DMSO. […] The data are expressed as the average IC50 from the assays±standard error of the mean.

BA/F3 (ATCC CRL-12015) = test: BA/F3 viability assay; format: cell-based, murine; conditions: IL3-dependent viability, ATP-lite, individual determinations
Text: The protocol describes the methods to analyse the activity of compounds on the ability to sustain the IL3-dependent viability of BA/F3 (ATCC CRL-12015; Collins et al, 1992).

T1 sequence (P23458 866-1154): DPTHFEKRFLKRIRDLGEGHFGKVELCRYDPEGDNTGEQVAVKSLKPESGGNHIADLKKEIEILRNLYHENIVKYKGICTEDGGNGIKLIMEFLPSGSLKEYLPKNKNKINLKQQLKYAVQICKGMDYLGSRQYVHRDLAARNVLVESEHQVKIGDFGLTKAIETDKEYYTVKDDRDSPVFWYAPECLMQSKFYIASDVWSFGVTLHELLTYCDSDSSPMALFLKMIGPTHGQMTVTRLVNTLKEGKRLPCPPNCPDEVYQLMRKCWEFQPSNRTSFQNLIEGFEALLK

- selectivity for JAK1 vs the other JAK family members (JAK2, JAK3, and TYK2) [2]: at least 10 fold
- IC50 ([2]; Ulight-JAK1(tyr1023) peptide, 7 μM ATP, individual determinations, read-out: IC50 against JAK1): 6.59 nM and 7.68 nM and 12.9 nM and 4.47 nM and 10.2 nM and 9.11 nM and 5.42 nM and 8.37 nM and 9.43 nM and 6.94 nM
- JAK1 selectivity vs JAK2 ([2]; vs JAK2): > 15 fold
- JAK1 selectivity vs JAK3 ([2]; vs JAK3): > 70 fold
- JAK1 selectivity vs TYK2 ([2]; vs TYK2): > 80 fold
- IC50 (BA/F3 (ATCC CRL-12015); 48 h, listed as compound of the invention): 8020 nM
- IC50 (BA/F3 (ATCC CRL-12015); Mus musculus, BaF3, 48 h): > 11100 nM
Structure (SMILES): CCc1cc(C2CN(S(C)(=O)=O)C2)ncc1N(C)c1cc2c(cn1)ncn2C [Compound 1, [4-Ethyl-6-(1-methanesulfonyl-azetidin-3-yl)-pyridin-3-yl]-methyl-(1-methyl-1H-imidazo[4,5-d]pyridin-6-yl)-amine]
- dose from which statistically significant efficacy was displayed [1]: ≥ 3 mg/kg
